Patent US20250288584A1, “COMBINATIONS COMPRISING POSITIVE ALLOSTERIC MODULATORS OR ORTHOSTERIC AGONISTS OF METABOTROPIC GLUTAMATERGIC RECEPTOR SUBTYPE 2 AND THEIR USE” (JANSSEN PHARMACEUTICA NV, priority 2014, published 2025)
“And” between values parts separate entries of the source, which are not always exact repeats. Equal entries are not always repeated. “Also recorded” adds a separate entry of the source. Where two headings read alike, the source gives them in different places. Values belong to the compound of their own block, whether it stands above or below them.

Legend:
Format in all cases: in vivo, mice
[1] = test system: 6 Hz (44 mA) psychomotor seizures; test: 6 Hz psychomotor seizure test, 44 mA (alone, combination with LEV, isobolographic study)
Procedure, shortened: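 Mice dosed s.c. or p.o. at 0.01 mL/g, alone or with LEV at fixed dose ratios proportional to ED50 values. Focal seizures induced by corneal stimulation (6 Hz, 0.2 msec pulse, 3 sec, 44 mA); animals without stun, forelimb clonus, vibrissae twitch or Straub-tail were counted as protected. ED50 values derived, with combinations analysed isobolographically.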

[2] = Minimal motor impairment (rotarod)
[3] = Plasma and brain levels (pK/pD analysis); conditions: for concentration at 0.5 h / concentration at 1 h: mouse; for concentration at 0.5 h: subcutaneous; for concentration at 1 h: intraperitoneal
Protocol: In various tests, animals were sacrificed following testing, and trunk blood and/or brain tissue (whole brains) was collected for quantification of drug levels. Immediately after testing, animals were decapitated and trunk blood was collected into a BD Vacutainer® tube containing K2EDTA and chilled on ice until centrifugation. Following centrifugation (13000-18000 rpm, 5-7 min), the plasma was removed and transferred to a labeled microcentrifuge tube and stored at −80° C. For brain tissue collection, brains were removed immediately following decapitation and flash frozen. The frozen sample was placed in a labeled centrifuge tube and stored at −80° C.
In addition to recording the efficacy and toxicity data for these compounds alone or in combination, both plasma and brain samples were collected from each of the groups for pharmacokinetic/pharmacokinetic analysis.

[4] = LEV 10 mg/kg combined with Co. No. 2 3 mg/kg, 6 Hz 44 mA

Mean Plasma Level Co. No. 1, statistical outlier removed ([3]; Co. No. 1 2.5 mg/kg combined with LEV 10 mg/kg): (390) ng/ml
concentration at 0.5 h ([3]; plasma, 2.5 mg/kg, Mean Plasma Levels (non-combination) Co. No. 1, Co. No. 1 2.5 mg/kg alone): 438 ng/mL
concentration at 0.5 h ([3]; plasma, Mean Plasma Level Co. No. 1, Co. No. 1 2.5 mg/kg combined with LEV 10 mg/kg): 657 ng/mL
SMILES: Fc1ccc(N2CCN(Cc3ccn4c(CC5CC5)nnc4c3C(F)(F)F)CC2)c(F)c1 [Co. No. 1]
responders at 2.5 mg/kg ([1]; Mus musculus, sc, 0.5 h, 2.5 mg/kg s.c., 0.5 h, read-out: # protected/# tested): 0%
responders at 10 mg/kg ([1]; Mus musculus, sc, 0.5 h, 10 mg/kg s.c., 0.5 h, read-out: # protected/# tested (converted)): 50%
responders at 15 mg/kg ([1]; Mus musculus, sc, 0.5 h, 15 mg/kg s.c., 0.5 h, read-out: # protected/# tested (converted)): 87.5%
responders at 20 mg/kg ([1]; Mus musculus, sc, 0.5 h, 20 mg/kg s.c., 0.5 h, read-out: # protected/# tested (converted)): 100%
ED50 ([1]; Mus musculus, sc, at TPE, compound alone, read-out: ED50 (95% CI) 44 mA): 10.2 mg/kg
ED50 (95% CI) 44 mA ([1]; s.c., at TPE, compound alone): 10.2 (3.1-12.4) mg/kg
# rotarod motor impairment/# tested ([2]; 0.5 mg/kg s.c., 0.5 h, 32 mA group): 0/8
# rotarod motor impairment/# tested ([2]; 2.5 mg/kg s.c., 0.25 h, 32 mA group): 0/0
# rotarod motor impairment/# tested ([2]; 2.5 mg/kg s.c., 0.5 h, 32 mA group): 0/0 and 0/16
# rotarod motor impairment/# tested ([2]; 2.5 mg/kg s.c., 0.5 h, 44 mA group): 0/8
# rotarod motor impairment/# tested ([2]; 5 mg/kg s.c., 0.25 h, 32 mA group): 0/0
# rotarod motor impairment/# tested ([2]; 5 mg/kg s.c., 0.5 h, 32 mA group): 0/0 and 0/12
# rotarod motor impairment/# tested ([2]; 10 mg/kg s.c., 0.25 h, 32 mA group): 0/0
# rotarod motor impairment/# tested ([2]; 10 mg/kg s.c., 0.5 h, 32 mA group): 0/0 and 0/8
# rotarod motor impairment/# tested ([2]; 10 mg/kg s.c., 0.5 h, 44 mA group): 0/8
# rotarod motor impairment/# tested ([2]; 10 mg/kg s.c., 1 h, 32 mA group): 0/0
# rotarod motor impairment/# tested ([2]; 10 mg/kg s.c., 2 h, 32 mA group): 0/0
# rotarod motor impairment/# tested ([2]; 10 mg/kg s.c., 4 h, 32 mA group): 0/0
# rotarod motor impairment/# tested ([2]; 15 mg/kg s.c., 0.5 h, 44 mA group): 0/8
# rotarod motor impairment/# tested ([2]; 20 mg/kg s.c., 0.5 h, 32 mA group): 1/8
# rotarod motor impairment/# tested ([2]; 20 mg/kg s.c., 0.5 h, 44 mA group): 1/8

concentration at 1 h ([3]; brain, 10 mg/kg, LEV 10 mg/kg alone (Co. No. 2 study), read-out: Mean Brain Level (non-combination) LEV): 5770 ng/mL
concentration at 1 h ([3]; brain, LEV 10 mg/kg combined with Co. No. 2 3 mg/kg, read-out: Mean Brain Level LEV): 5880 ng/mL
concentration at 1 h ([3]; plasma, 10 mg/kg, LEV 10 mg/kg alone (Co. No. 1 study), read-out: Mean Plasma Levels (non-combination) LEV): 8250 ng/mL
concentration at 1 h ([3]; plasma, 10 mg/kg, LEV 10 mg/kg alone (Co. No. 2 study), read-out: Mean Plasma Level (non-combination) LEV): 8750 ng/mL
concentration at 1 h ([3]; plasma, LEV 10 mg/kg combined with Co. No. 1 2.5 mg/kg, 6 Hz 44 mA, read-out: Plasma (ng/ml) LEV, individual mice): 10300 ng/mL
concentration at 1 h ([3]; plasma, LEV 10 mg/kg combined with Co. No. 1 2.5 mg/kg, read-out: Mean Plasma Level LEV): 10300 ng/mL
concentration at 1 h ([3]; plasma, LEV 10 mg/kg combined with Co. No. 2 3 mg/kg, read-out: Mean Plasma Level LEV): 5510 ng/mL
SMILES: CC[C@@H](C(N)=O)N1CCCC1=O [LEV, (S)-2-(2-oxopyrrolidin-1-yl) butanamide, reference compound]
# protected/# tested ([1]; LEV (low-dose) control group 25 mg/kg): 1/8
# protected/# tested ([1]; LEV alone 10 mg/kg i.p., 1 h): ⅙
responders at 200 mg/kg ([1]; Mus musculus, 6 Hz (44 mA), LEV alone 200 mg/kg, read-out: # protected/# tested (converted)): 25%
responders at 400 mg/kg ([1]; Mus musculus, 6 Hz (44 mA), LEV alone 400 mg/kg, read-out: # protected/# tested (converted)): 44.4%
responders at 800 mg/kg ([1]; Mus musculus, 6 Hz (44 mA), LEV alone 800 mg/kg, read-out: # protected/# tested (converted)): 83.3%
ED50 ([1]; Mus musculus, ip, 1 h, 6 Hz (44 mA), LEV alone, i.p., 1 h TPE, read-out: LEV ED50 (95% CI)): 345 mg/kg
responders at 10 mg/kg ([1]; Mus musculus, ip, 1 h, LEV alone 10 mg/kg i.p., 1 h, read-out: # protected/# tested (converted)): 16.7%
ED50 ([1]; Mus musculus, ip, 1 h, i.p., 1 h TPE, read-out: ED50 (95% CI) 44 mA, LEV alone): ~345 mg/kg
responders at 200 mg/kg ([1]; Mus musculus, ip, LEV alone 200 mg/kg i.p., read-out: # protected/# tested (converted)): 25%
responders at 350 mg/kg ([1]; Mus musculus, ip, LEV alone 350 mg/kg i.p., read-out: # protected/# tested (converted)): 37.5%
responders at 400 mg/kg ([1]; Mus musculus, ip, LEV alone 400 mg/kg i.p., read-out: # protected/# tested (converted)): 44.4%
responders at 800 mg/kg ([1]; Mus musculus, ip, LEV alone 800 mg/kg i.p., read-out: # protected/# tested (converted)): 83.3%
Maximum Effect (% Protection) ([1]; compound alone): 75%
# motortox/# tested ([2]; LEV alone 10 mg/kg i.p., 1 h, 44 mA group): 0/6 and 0/8
# rotarod motor impairment/# tested ([2]; LEV alone 200 mg/kg): 0/8
# rotarod motor impairment/# tested ([2]; LEV alone 200 mg/kg i.p., 44 mA group): 0/8
# rotarod motor impairment/# tested ([2]; LEV alone 350 mg/kg i.p., 44 mA group): 0/8
# rotarod motor impairment/# tested ([2]; LEV alone 400 mg/kg): 0/9
# rotarod motor impairment/# tested ([2]; LEV alone 400 mg/kg i.p., 44 mA group): 0/9
# rotarod motor impairment/# tested ([2]; LEV alone 800 mg/kg): 0/12
# rotarod motor impairment/# tested ([2]; LEV alone 800 mg/kg i.p., 44 mA group): 0/12
Plasma (ng/ml) LEV, individual mice ([3]; LEV 10 mg/kg combined with Co. No. 1 2.5 mg/kg, 6 Hz 44 mA): 9780 ng/ml (2×) and 13700 ng/ml and 10100 ng/ml and 9350 ng/ml and 8580 ng/ml and 10900 ng/ml
Brain (ng/ml) LEV, individual mice [3, 4]: 4760 ng/mL and 6380 ng/mL and 3960 ng/mL and 6290 ng/mL and 7990 ng/mL
Plasma (ng/ml) LEV, individual mice [3, 4]: 3540 ng/mL and 3850 ng/mL and 7150 ng/mL and 3890 ng/mL and 6450 ng/mL and 8200 ng/mL

SMILES: C[C@H](Oc1ccc(F)cc1F)c1ccn2c(CC3CC3)nnc2c1C(F)(F)F [Co. No. 6-b, 3-(Cyclopropylmethyl)-7-[(1S)-1-(2,4-difluorophenoxy)ethyl]-8-(trifluoromethyl)[1,2,4]triazolo[4,3-a]pyridine]
activity when administered alone ([1]; 10 mg/kg p.o.): did not protect; also recorded: Co. No. 6-b 10 mg/kg, not active when administered alone
responders at 10 mg/kg ([1]; Mus musculus, po, 0.5 h, 10 mg/kg p.o., 0.5 h, read-out: # protected/# tested (converted)): 0%
responders at 15 mg/kg ([1]; Mus musculus, po, 0.5 h, 15 mg/kg p.o., 0.5 h, read-out: # protected/# tested (converted)): 50%
responders at 20 mg/kg ([1]; Mus musculus, po, 0.5 h, 20 mg/kg p.o., 0.5 h, read-out: # protected/# tested (converted)): 75%
responders at 40 mg/kg ([1]; Mus musculus, po, 0.5 h, 40 mg/kg p.o., 0.5 h, read-out: # protected/# tested (converted)): 100%
ED50 ([1]; Mus musculus, po, 0.5 h, p.o., 0.5 h TPE, read-out: ED50 (95% CI) 44 mA): 16.1 mg/kg
ED50 (95% CI) 44 mA ([1]; p.o., 0.5 h TPE): 16.1 (13.0-20.1) mg/kg
# rotarod motor impairment/# tested ([2]; 2.5 mg/kg p.o., 0.5 h, 32 mA group): 0/8
# rotarod motor impairment/# tested ([2]; 5 mg/kg p.o., 0.5 h, 32 mA group): 0/8
# rotarod motor impairment/# tested ([2]; 10 mg/kg p.o., 0.25 h, 32 mA group): 0/4
# rotarod motor impairment/# tested ([2]; 10 mg/kg p.o., 0.5 h, 32 mA group): 0/4 and 0/8
# rotarod motor impairment/# tested ([2]; 10 mg/kg p.o., 0.5 h, 44 mA group): 0/8
# rotarod motor impairment/# tested ([2]; 10 mg/kg p.o., 1 h, 32 mA group): 0/4
# rotarod motor impairment/# tested ([2]; 10 mg/kg p.o., 2 h, 32 mA group): 0/4
# rotarod motor impairment/# tested ([2]; 10 mg/kg p.o., 4 h, 32 mA group): 0/4
# rotarod motor impairment/# tested ([2]; 15 mg/kg p.o., 0.5 h, 44 mA group): 0/8
# rotarod motor impairment/# tested ([2]; 20 mg/kg p.o., 0.25 h, 32 mA group): 0/4
# rotarod motor impairment/# tested ([2]; 20 mg/kg p.o., 0.5 h, 32 mA group): 0/4 and 0/8
# rotarod motor impairment/# tested ([2]; 20 mg/kg p.o., 0.5 h, 44 mA group): 0/8
# rotarod motor impairment/# tested ([2]; 20 mg/kg p.o., 1 h, 32 mA group): 0/4
# rotarod motor impairment/# tested ([2]; 20 mg/kg p.o., 2 h, 32 mA group): 0/4
# rotarod motor impairment/# tested ([2]; 20 mg/kg p.o., 4 h, 32 mA group): 0/4
# rotarod motor impairment/# tested ([2]; 40 mg/kg p.o., 0.5 h, 44 mA group): 0/8
